# Earlier results, collected in patent publication US20250257300A1, “MICROTITER-PLATE-BASED HIGH THROUGHPUT PERFUSION BIOREACTOR” (THE GEORGE WASHINGTON UNIVERSITY, priority 2022, published 2025).
# Test system: Pseudomonas aeruginosa biofilms
# Conditions: Pseudomonas aeruginosa biofilms growing on urinary catheters vs planktonic cells
structure (smiles),measurement,value
NC[C@H]1O[C@H](O[C@H]2[C@H](O)[C@@H](O[C@H]3O[C@H](CO)[C@@H](O)[C@H](N)[C@H]3O)[C@H](N)C[C@@H]2N)[C@H](N)C[C@@H]1O [tobramycin],resistance of biofilms to tobramycin relative to planktonic cells,1000 times
